Source: PMC3850452, “Glycolic acid production in the engineered yeasts Saccharomyces cerevisiae and Kluyveromyces lactis” (Microbial Cell Factories, 2013)

What was measured:
GLYR1 = biological target: T1, GLYR1 (Arabidopsis thaliana, UniProt Q9LSV0); assay: NADPH consumption at […] nm, Michaelis-Menten fit; type: biochemical; settings: crude extract of overexpressing yeast; 200 μM NADPH; 50 mM sodium phosphate pH 7; 30 °C
T1 construct: full-length gene codon optimised for yeast, TPI1 promoter multicopy plasmid (p2159/pYX212), expressed in S. cerevisiae; crude cell extract, no tag told
T1 sequence (Q9LSV0 1-289): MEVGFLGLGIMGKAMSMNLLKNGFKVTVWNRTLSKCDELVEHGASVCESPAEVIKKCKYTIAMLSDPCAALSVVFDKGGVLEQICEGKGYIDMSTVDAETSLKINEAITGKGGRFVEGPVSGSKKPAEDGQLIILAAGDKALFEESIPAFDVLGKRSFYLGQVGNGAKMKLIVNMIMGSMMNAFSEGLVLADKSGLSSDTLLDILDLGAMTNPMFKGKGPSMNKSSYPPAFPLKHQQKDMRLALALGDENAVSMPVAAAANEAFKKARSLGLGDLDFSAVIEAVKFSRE

[1] = substrate: O=CC(=O)O; assay: cells, lysate or membranes; type: biochemical, Saccharomyces cerevisiae; settings: crude extract of overexpressing yeast, 200 μM NADPH, 50 mM sodium phosphate pH 7, 30 °C

O=CC(=O)O [glyoxylic acid]
Km (GLYR1): 38.8 µM

B1: Gor1p (Saccharomyces cerevisiae S288C) (protein)
chain: MSKKPIVLKLGKDAFGDQAWGELEKIADVITIPESTTREQFLREVKDPQNKLSQVQVITRTARSVKNTGRFDEELALALPSSVVAVCHTGAGYDQIDVEPFKKRHIQVANVPDLVSNATADTHVFLLLGALRNFGIGNRRLIEGNWPEAGPACGSPFGYDPEGKTVGILGLGRIGRCILERLKPFGFENFIYHNRHQLPSEEEHGCEYVGFEEFLKRSDIVSVNVPLNHNTHHLINAETIEKMKDGVVIVNTARGAVIDEQAMTDALRSGKIRSAGLDVFEYEPKISKELLSMSQVLGLPHMGTHSVETRKKMEELVVENAKNVILTGKVLTIVPELQNEDWPNESKPLV
notes: endogenous gene overexpressed from multicopy plasmid in S. cerevisiae; crude cell extract, no tag told
Km [1]: 1900 µM
